Target: T1, muscarinic receptors of the cerebral cortex (Rattus norvegicus, UniProt P08482)
T1 construct: displacement of ³H-pirenzepine from cerebral cortex homogenate; from tissue; host or cells: rat cerebral cortex homogenate
T1 sequence (P08482 1-460): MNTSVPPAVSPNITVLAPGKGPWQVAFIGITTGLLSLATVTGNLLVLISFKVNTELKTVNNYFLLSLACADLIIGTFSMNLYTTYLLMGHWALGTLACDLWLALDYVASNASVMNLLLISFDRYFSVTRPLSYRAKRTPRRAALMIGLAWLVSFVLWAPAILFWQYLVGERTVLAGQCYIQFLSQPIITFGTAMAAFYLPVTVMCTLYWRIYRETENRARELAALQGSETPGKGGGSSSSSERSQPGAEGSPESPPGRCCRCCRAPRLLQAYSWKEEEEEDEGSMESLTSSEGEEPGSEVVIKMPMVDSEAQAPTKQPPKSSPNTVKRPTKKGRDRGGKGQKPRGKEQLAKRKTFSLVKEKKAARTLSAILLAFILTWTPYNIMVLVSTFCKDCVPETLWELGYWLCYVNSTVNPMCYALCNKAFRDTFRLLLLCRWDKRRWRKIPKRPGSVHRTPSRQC
Assay: Antimuscarinic activity: in vitro binding, displacement of ³H-pirenzepine from cerebral cortex homogenate
Parameters: species or system male CD-COOBBS rats
Details: competition against 0.5 nM ³H-pirenzepine, 45 min at 30°C, KD from IC50 corrected for radioligand occupancy shift, read-out: Dissociation constants (KD) for ³H-pirenzepine binding
Experimental: Antimuscarinic activity was examined by studying the displacement of ³H-pirenzepine from cerebral cortex homogenate according to the procedure reported below: The cerebral cortex donors were male CD-COOBBS rats, 220-250 g body weight. The homogenization process was carried out in a Potter-Evelhjem apparatus in the presence of Na⁺/Mg⁺⁺ HEPES buffer; pH 7.4 (100 mM NaCl, 10 mM MgCl₂, 20 mM HEPES), by filtering the suspension through two layers of cheesecloth.
Binding curves for the under study compounds were derived indirectly from competition experiments against 0.5 nM ³H-pirenzepine labelling the muscarinic receptors of the cerebral cortex. 1 ml of the homogenate was incubated for 45 min at 30°C in the presence of a marker ligand and different concentrations of the cold ligand, conditions under which equilibrium was reached as determined by appropriate association experiments. The incubation was terminated by centrifugation (12,000 rpm for 3 min) at room temperature using an Eppendorf microcentrifuge. The resultant pellet was washed twice with 1.5 ml saline to remove the free radioactivity and it was allowed to drain for some hours. The tips of the tubes containing the pellet were cut off and 200 µl of tissue solubilizer (Lumasolve, Lumac) were added and left to stand overnight. Radioactivity was then counted after addition of 4 ml of liquid scintillation mixture (Dimilume/Toluene 1:10 v:v, Packard)
Assays were carried out in triplicate or quadruplicate and the non-specific binding was defined as the radioactivity bound or entrapped in the pellet when the incubation medium contained 1 µM atropine sulphate. Non-specific binding avaraged less than 30%. KD values (dissociation constants) were obtained by non-linear regression analysis on the basis of a one binding site model with TOPFIT-pharmacokinetic programme package (G. HEINZEL, "Pharmacokinetics during drug development: data analysis and evaluation techniques" Eds. G. BOLZER and J.M. VAN ROSSUM; p. 207, G. Fisher, New York, 1982) after correction for the radioligand occupancy shift according to the equation: KD = IC₅₀/1 + *C/*KD, where *C and *KD represent the concentration and the dissociation constant of the radioligand used, respectively.

First: CC1=NCCCN1CCC(=O)N1c2ccccc2C(=O)Nc2cccnc21 [Compound 85, 5,11-dihydro-11-[3-(2-methyl-1,4,5,6-tetrahydropirimidin-1-yl)-propionyl]-6H-pyrido[2,3-b] [1,4]-benzodiazepin-6-one]
Second: CC1=NCCCN1CCC(=O)N1c2ccccc2NC(=O)c2ccccc21 [Compound 84, 5,10-dihydro-5-[3-(2-methyl-1,4,5,6-tetrahydropirimidin-1-yl)-propionyl]-11H-dibenzo[b,e] [1,4]-diazepin-11-one]
The Kd of the first is 2-fold higher: 5 nM for the first, 2.5 nM for the second. The second binds more tightly here.

N=C(N)N1C2CCC1CC(CC(=O)N1c3ccccc3NC(=O)c3cscc31)C2 (stereo not drawn) [Compound 19, 4,9-dihydro-4-[2-(8-guanyl-8-azabicyclo[3.2.1]-octan-3-yl)-acetyl]-10H-thieno[3,4-b] [1,5]-benzodiazepin-10-one] and N=C(N)N1CCC(CC(=O)N2c3ccccc3NC(=O)c3ccccc32)CC1 [Compound 20, 5,10-dihydro-5-[2-(1-guanyl-piperidin-4-yl)-acetyl]-11H-dibenzo b,e [1,4]-diazepin-11-one] are within 1.5-fold of each other in Kd: 4 nM for the first, 3.2 nM for the second.

Compared with N=C(N)N1CCN(CC(=O)N2c3ccccc3NC(=O)c3ccccc32)CC1 [Compound 3, 5,10-dihydro-5-[2-(4-guanyl-piperazin-1-yl)-acetyl]-11H-dibenzo [b,e] [1,4]-diazepin-11-one], N=C(N)N1CCCC(CC(=O)N2c3ccccc3NC(=O)c3ccccc32)C1 (stereo not drawn) [Compound 26, 5,10-dihydro-5-[2-(1-guanyl-piperidin-3-yl)-acetyl]-11H-dibenzo [b,e] [1,4]-diazepin-11-one] is 1.5-fold higher in Kd: 6 nM for the first, 9 nM for the second. The first binds more tightly here.

O=C1Nc2ccccc2N(C(=O)CCN2C=NCCC2)c2cscc21 [Compound 83, 4,9-dihydro-4-[3-(1,4,5,6-tetrahydropirimidin-1-yl)-propionyl]-10H-thieno[3,4-b] [1,5]-benzodiazepin-10-one] and O=C1Nc2ccccc2N(C(=O)CCN2C=NCCC2)c2ccccc21 [Compound 81, 5,10-dihydro-5-[3-(1,4,5,6-tetrahydropirimidin-1-yl)-propionyl]-11H-dibenzo[b,e] [1,4]-diazepin-11-one] are within 1.5-fold of each other in Kd: 7 nM for the first, 10 nM for the second.

Going from CC(=N)N1CCC(CC(=O)N2c3ccccc3NC(=O)c3ccccc32)CC1 [Compound 60, 5,10-dihydro-5-[2-(1-α-iminoethyl-piperidin-h-yl)-acetyl]-11H-dibenzo[b,e] [1,4]-diazepin-11-one] to CC(=N)N1CCCC(CC(=O)N2c3ccccc3NC(=O)c3ccccc32)C1 (stereo not drawn) [Compound 61, 5,10-dihydro-5-[2-(1-α-iminoethyl - piperidin-3-yl)-acetyl]-11H-dibenzo[b,e] [1,4]-diazepin-11-one], the Kd rises from 2.7 nM to 5 nM (1.9-fold).

First: O=C1Nc2ccccc2N(C(=O)CC2CCN(C3=NCCN3)CC2)c2ccccc21 [Compound 72]
Second: CC(=N)N1CCCC(C(=O)N2c3ccccc3NC(=O)c3ccccc32)C1 (stereo not drawn) [Compound 62, 5,10-dihydro-5-[(1-α-iminoethyl-piperidin-3-yl)-carbonyl]-11H-dibenzo[b,e] [1,4]-diazepin-11-one]
The Kd of the first is 2-fold lower: 4 nM for the first, 8 nM for the second. The first binds more tightly here.

First: O=C1Nc2cccnc2N(C(=O)CCN2C=NCCC2)c2ccccc21 [Compound 82, 5,11-dihydro-11-[3-(1,4,5,6-tetrahydropirimidin-1-yl)-propionyl]-6H-pyrido[2,3-b] [1,5]-benzodiazepin-6-one]
Second: CNC(=N)C1CCCN(CC(=O)N2c3ccccc3NC(=O)c3ccccc32)C1 (stereo not drawn) [Compound 78, 5,10-dihydro-5-[2-(3-N-methylguanyl-piperidin-1-yl)-acetyl]-11H-dibenzo[b,e] [1,4]-diazepin-11-one]
The Kd of the first is 2-fold higher: 10 nM for the first, 5 nM for the second. The second binds more tightly here.

N=C(N)N1CCC(OC(=O)C2c3ccccc3NC(=O)c3ccccc32)CC1 (stereo not drawn) [Compound 31, 5,6-dihydro-11-[(1-guanyl-4-piperidinyl)-oxycarbonyl]-11H-dibenz[b,e]-azepin-6-one] gave a Kd of 7.7 nM.

From patent EP0309422A2, “New amidino tricycle derivatives” (ISTITUTO DE ANGELI S.p.A., priority 1987, dated 1989)
